Each substance was assayed on HIV-1 infection of TZM-bl cells (assay: HIV-1 infectivity enhancement assay, β-galactosidase luminescence). Conditions: input.xlsx of the Pattern-Analysis script; infectivity relative to EF-C (peptide 59 = 1.00).
Format: cell-based

Row | Substance | infectivity
1 | KAKAQA [compound 78] | 0.0181
2 | KAKAQANM [compound 136] | 0.009
3 | KAKAQANMWQ [compound 66] | 0.00715
4 | KAKQAANMWQ [compound 69] | 0.03
5 | KFKFEFEF [compound 106] | 0.0284
6 | KFKFKFQF [compound 118] | 0.80
7 | KFKFQF [compound 80] | 0.06
8 | KFKFQFF [compound 121] | 0.12
9 | KFKFQFFF [compound 114] | 0.40
10 | KFKFQFN [compound 9] | 0.018
11 | KFKFQFNM [compound 8] | 0.47
12 | KFKFQFNMW [compound 7] | 0.45
13 | KFKFQFNMWQ [compound 67] | 0.76
14 | KFKFQFW [compound 147] | 0.16
15 | KFKQFFINMWQ [compound 158] | 0.92
16 | KFKQFFNMWQ [compound 68] | 0.09
17 | KIEIQINM [compound 108] | 0.0348
18 | KIKIKIKI [compound 130] | 0.0326
19 | KIKIKIKIWW [compound 139] | 0.37
20 | KIKIKIKIWWWW [compound 129] | 0.59
21 | KIKIKIKIYYYY [compound 86] | 1.38
22 | KIKIKIQI [compound 115] | 0.10
23 | KIKIKIQINMWQ [compound 163] | 0.79
24 | KIKIQI [compound 79] | 0.07
25 | KIKIQIAMWQ [compound 85] | 0.39
26 | KIKIQIC [compound 125] | 0.61

Row | Substance | infectivity
27 | KIKIQII [compound 113] | 0.0187
28 | KIKIQIII [compound 122] | 0.35
29 | KIKIQIMQWN [compound 160] | 0.72
30 | KIKIQIMWNQ [compound 159] | 0.56
31 | KIKIQIN [compound 77] | 0.27
32 | KIKIQINAWQ [compound 84] | 0.54
33 | KIKIQINM [compound 76] | 0.36
34 | KIKIQINMAQ [compound 83] | 0.21
35 | KIKIQINMW [compound 75] | 2.16
36 | KIKIQINMWA [compound 81] | 0.69
37 | KIKIQINMWQ [compound 61] | 0.30
38 | KIKIQINMWQRGD [compound 161] | 0.0121
39 | KIKIQINMWWQ [compound 156] | 3.21
40 | KIKIQINMWWWQ [compound 157] | 2.75
41 | KIKIQIRGD [compound 102] | 0.02
42 | KIKIQIW [compound 146] | 0.14
43 | KIKQII [compound 107] | 0.00492
44 | KIKQIIN [compound 74] | 0.04
45 | KIKQIINM [compound 73] | 0.45
46 | KIKQIINMWQ [compound 65] | 0.35
47 | KIRGKFEKED [compound 47] | 0.06
48 | KKFQKKFQ [compound 37] | 0.0285
49 | KLKLKLQL [compound 117] | 0.10
50 | KLKLQLL [compound 120] | 0.00698
51 | KLKQLL [compound 95] | 0.00739
52 | KNDKND [compound 52] | 0.0105

Row | Substance | infectivity
53 | KNERIKNERI [compound 46] | 0.013
54 | KVKGVGK [compound 43] | 0.0259
55 | KVKVKVQV [compound 64] | 0.0173
56 | KVKVQVV [compound 119] | 0.00912
57 | KVKVQVVV [compound 123] | 0.0351
58 | KWKWQW [compound 93] | 0.0145
59 | KYKGAIIGNIK [compound 34] | 0.0031
60 | KYKYQY [compound 88] | 0.01
61 | MDQMDQMDQMDQMDQ [compound 39] | 0.00427
62 | MKFKFQF [compound 58] | 0.0637
63 | MKFM [compound 49] | 0.0175
64 | MKIKIQINM [compound 141] | 0.27
65 | MKIKIQINMWQ [compound 143] | 0.42
66 | NMWQKAKAQA [compound 62] | 0.04
67 | NMWQKFKFQF [compound 63] | 0.27
68 | NMWQKIKIQI [compound 72] | 0.21
69 | NMWQKIKQII [compound 71] | 0.0253
70 | NMWQKVGTPL [compound 70] | 0.0247
71 | PPFHPPPFHP [compound 38] | 0.0177
72 | QCKAKAQA [compound 21] | 0.0253
73 | QCKAKAQANM [compound 20] | 0.0146
74 | QCKAKAQANMWQ [compound 19] | 0.07
75 | QCKFKFQF [compound 27] | 0.77
76 | QCKFKFQFNM [compound 26] | 0.51
77 | QCKFKFQFNMWQ [compound 25] | 0.62
78 | QCKFKQFF [compound 14] | 0.0124

Row | Substance | infectivity
79 | QCKFKQFFNM [compound 13] | 0.43
80 | QCKIKIQI [compound 22] | 0.11
81 | QCKIKIQINM [compound 18] | 0.40
82 | QCKIKIQINMWQ [compound 60] | 1.04
83 | QCKIKQII [compound 24] | 0.00647
84 | QCKIKQIINM [compound 23] | 0.35
85 | QCKIKQIINMWQ [compound 59] | 1.00
86 | RGDCKFKFQF [compound 145] | 0.15
87 | RGDCKIKIQINM [compound 142] | 0.24
88 | RGDKIKIQI [compound 97] | 0.0157
89 | RGDKIKIQIC [compound 103] | 0.83
90 | RGDKIKIQINM [compound 104] | 0.41
91 | RGDKIKIQINMC [compound 111] | 1.07
92 | RGDKIKIQINMWQ [compound 105] | 0.76
93 | RGDKIRGDKI [compound 51] | 0.00748
94 | RGDSGGGGGGKIKIQIC [compound 127] | 0.87
95 | RGDSKIKIQIC [compound 126] | 0.60
96 | RGECKFKFQF [compound 32] | 0.33
97 | RGEKIKIQINM [compound 33] | 0.24
98 | RLRLTLC [compound 30] | 0.05
99 | RPRGLLLGNLR [compound 36] | 0.05
100 | SISISRRI [compound 44] | 0.0283
101 | TKTLTKTL [compound 41] | 0.0213
